The source of these data is patent publication EP4603105A1, “PHARMACEUTICAL COMPOSITION CONTAINING CYCLIC COMPOUND HAVING SELECTIVE KRAS INHIBITORY EFFECT AGAINST HRAS AND NRAS” (CHUGAI SEIYAKU KABUSHIKI KAISHA, priority 2022, dated 2024).

Usually IC50 stands for the concentration at which inhibition is half-maximal. Low readings indicate inhibition by little substance, high ones a need for much substance.

*1 amine or outer side, *2 acyl side, *3 side chain or, on linkers, in order; H or OH if unused. Where a SMILES comes first, the peptide text is derived from it. Bridges are numbered along the chain shown (N, C = ends). [ ]: non-standard residue; d: D form. The star is where a group is joined. hPhe(3,5-F2-4-CF3) = N[C@@H](CCc1cc(F)c(C(F)(F)F)c(F)c1)C(=O)O; hPhe(3-Cl-4-CF3) = N[C@@H](CCc1ccc(C(F)(F)F)c(Cl)c1)C(=O)O; NPrPhe(4-CF3) = CCCN[C@@H](Cc1ccc(C(F)(F)F)cc1)C(=O)O; NEtPhe(4-CF3) = CCN[C@@H](Cc1ccc(C(F)(F)F)cc1)C(=O)O; X17 = CN([C@@H](CCCCC=[*:3])C(=O)[*:2])[*:1]; dαMeAlg = C[C@](CC=[*:3])(N[*:1])C(=O)[*:2]; NMeGly(cPent) = CN[C@H](C(=O)O)C1CCCC1; Nva(3-Et) = CCC(CC)[C@H](N)C(=O)O; X3 = CCC[C@](C)(N[*:1])C(=O)[*:2]; Hyp = O=C(O)[C@@H]1C[C@@H](O)CN1; NMeD = CN[C@@H](CC(=O)O)C(=O)O; NMeL = CN[C@@H](CC(C)C)C(=O)O; αMeV = CC(C)[C@](C)(N)C(=O)O; Morpholide = C1CN(*)CCO1; NMeA = CN[C@@H](C)C(=O)O; Ac5c = NC1(C(=O)O)CCCC1; Aze = O=C(O)[C@@H]1CCN1; Ac4c = NC1(C(=O)O)CCC1; NEtG = CCNCC(=O)O; Sar = CNCC(=O)O

Experiment [1] has as its target GDP-bound NRAS wild-type protein (Homo sapiens, UniProt P01111). Description: Binding to NRAS by surface plasmon resonance (SPR), KD and KD ratio to KRAS. The method, boiled down: (§1)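 Running buffer contained 10 µM GDP and 10 mM MgCl2 to keep RAS in the GDP state, with 4% DMSO at pH 7.4. Compounds were flowed at 100 µL/min in 75 s steps of rising concentration over captured biotin-Avi RAS at 30°C. Sensorgrams were fitted 1:1 for KD.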

In another experiment the target is HRAS wild-type protein (Homo sapiens, UniProt P01112). Description: Binding to HRAS by surface plasmon resonance (SPR), KD and KD ratio to KRAS. The method, boiled down:
as §1
(SPR reads the build-up and loss of mass on a sensor chip optically.)

The test system of experiment [2] is human lung cancer strain NCI-H441. It is filed as cell-based. The method, boiled down: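 Step one: dispense the test compound in serial DMSO dilutions. Step three: add the reagent and measure […].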
Where [3] appears, read: ratio of KD for GDP-bound NRAS wild-type protein to KD for KRAS.
Setting [4] is: ratio of KD for HRAS wild-type protein to KD for KRAS.
Where [5] appears, read: ratio of the KD value with respect to GDP-bound NRAS wild-type protein to the KD value with respect to KRAS.
The mark [6] stands for this setting: ratio of the KD value with respect to HRAS wild-type protein to the KD value with respect to KRAS.

HRAS wild-type protein, sequence (P01112 whole entry): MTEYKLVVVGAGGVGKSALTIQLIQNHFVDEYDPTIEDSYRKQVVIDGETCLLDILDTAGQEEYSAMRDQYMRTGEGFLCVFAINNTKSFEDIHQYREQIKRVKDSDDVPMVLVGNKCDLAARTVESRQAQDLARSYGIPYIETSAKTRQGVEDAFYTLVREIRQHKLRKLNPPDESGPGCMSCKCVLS
GDP-bound NRAS wild-type protein, sequence (P01111 whole entry): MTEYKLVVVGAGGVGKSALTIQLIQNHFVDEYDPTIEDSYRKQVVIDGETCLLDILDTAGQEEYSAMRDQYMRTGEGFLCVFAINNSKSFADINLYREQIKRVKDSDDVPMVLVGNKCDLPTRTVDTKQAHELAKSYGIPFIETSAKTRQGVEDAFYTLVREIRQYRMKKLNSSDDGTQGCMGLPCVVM

For the compound `CC[C@H](C)[C@@H]1NC(=O)[C@H](CC(C)C)N(C)C(=O)C[C@@H](C(=O)N2CCOCC2)N(C)C(=O)[C@H](C2CCCC2)N(C)C(=O)C2(CCCC2)NC(=O)[C@@H]2CCCN2C(=O)[C@H](CCc2ccc(C(F)(F)F)c(Cl)c2)NC(=O)CN(C)C(=O)[C@H](Cc2ccc(C(F)(F)F)cc2)N(CC)C(=O)[C@@H]2CCN2C(=O)[C@H](C)N(C)C1=O` [PP0002] ([NMeL]I[NMeA][Aze][NEtPhe(4-CF3)][Sar][hPhe(3-Cl-4-CF3)]P[Ac5c][NMeGly(cPent)][NMeD]-Morpholide; lactam N-11), the “NRAS /KRAS” value in experiment [1] (setting [3]) was “C (A compound having a KD ratio of 0.1 or more and less than 3 is denoted as C)”. Besides, the “HRAS /KRAS” value at HRAS wild-type protein (setting [4]) is “C (A compound having a KD ratio of 0.1 or more and less than 3 is denoted as C)”. For the same compound, in experiment [2], the IC50 turned out to be 0.0021 µM.
With `CCCN1C(=O)CN(C)C(=O)CN(C)C(=O)[C@H](C(CC)CC)NC(=O)[C@H](CC(C)C)N(C)C(=O)C[C@@H](C(=O)N2CCOCC2)N(C)C(=O)[C@H](C2CCCC2)N(C)C(=O)C2(CCCC2)NC(=O)[C@@H]2CCCN2C(=O)[C@H](CCc2cc(F)c(C(F)(F)F)c(F)c2)NC(=O)CN(C)C(=O)[C@@H]1Cc1ccc(C(F)(F)F)cc1` [PP0768] ([NMeL][Nva(3-Et)][Sar][Sar][NPrPhe(4-CF3)][Sar][hPhe(3,5-F2-4-CF3)]P[Ac5c][NMeGly(cPent)][NMeD]-Morpholide; lactam N-11), in experiment [1] (setting [3]), the “NRAS /KRAS” value is “B (a compound having 3 or more and less than 10 is denoted as B)”. For the same compound, the “HRAS /KRAS” value at HRAS wild-type protein (setting [4]) is “C (A compound having a KD ratio of 0.1 or more and less than 3 is denoted as C)”. This compound yielded an IC50 in experiment [2] of 0.0361 µM.
`CCCN1C(=O)CN(C)C(=O)CN(C)C(=O)[C@H]([C@@H](C)CC)NC(=O)[C@H](CC(C)C)N(C)C(=O)C[C@@H](C(=O)N(C)C)N(C)C(=O)[C@H](C2CCCC2)N(C)C(=O)[C@](C)(C(C)C)NC(=O)[C@@H]2CCCN2C(=O)[C@H](CCc2cc(F)c(C(F)(F)F)c(F)c2)NC(=O)CN(C)C(=O)[C@@H]1Cc1ccc(C(F)(F)F)cc1` [PP0735] ([NMeL]I[Sar][Sar][NPrPhe(4-CF3)][Sar][hPhe(3,5-F2-4-CF3)]P[αMeV][NMeGly(cPent)][NMeD]-NMe2; lactam N-11): the “NRAS /KRAS” value in experiment [1] (setting [5]) was “B (a compound having 3 or more and less than 10 is denoted as B)”. Further, the “HRAS /KRAS” value at HRAS wild-type protein (setting [6]) is “C (A compound having a KD ratio of 0.1 or more and less than 3 is denoted as C)”. Further, 0.0409 µM corresponded to half-maximal inhibition in experiment [2] (IC50).
Take `CCCN1C(=O)CN(C)C(=O)CN(CC)C(=O)[C@H]([C@@H](C)CC)NC(=O)[C@H](CC(C)C)N(C)C(=O)C[C@@H](C(=O)N2CCOCC2)N(C)C(=O)[C@H](C2CCCC2)N(C)C(=O)C2(CCC2)NC(=O)[C@@H]2C[C@@H](OCC)CN2C(=O)[C@H](CCc2ccc(C(F)(F)F)c(Cl)c2)NC(=O)CN(C)C(=O)[C@@H]1Cc1ccc(C(F)(F)F)cc1` [PP0401] ([NMeL]I[NEtG][Sar][NPrPhe(4-CF3)][Sar][hPhe(3-Cl-4-CF3)][Hyp](Et)[Ac4c][NMeGly(cPent)][NMeD]-Morpholide; lactam N-11): the “NRAS /KRAS” value in experiment [1] (setting [5]) is “B (a compound having 3 or more and less than 10 is denoted as B)”. Also, the “HRAS /KRAS” value at HRAS wild-type protein (setting [6]) was “B (a compound having 3 or more and less than 10 is denoted as B)”. Moreover, 0.0051 µM corresponded to half-maximal inhibition in experiment [2] (IC50).
`CCO[C@@H]1C[C@H]2C(=O)NC3(CC(C)(C)C3)C(=O)N(C)[C@@H](C(CC)CC)C(=O)N(C)[C@H](C(=O)N(C)C)CC(=O)N(C)[C@@H](CC3CC3)C(=O)N[C@@H]([C@@H](C)CC)C(=O)N(C)CC(=O)N(C)[C@H]3C/C=C\CCN(C3=O)[C@@H](Cc3ccc(C(F)(F)F)cc3)C(=O)N(C)CC(=O)N[C@@H](CCc3ccc(C(F)(F)F)c(OC)c3)C(=O)N2C1` [PP2155]: the “NRAS /KRAS” value in experiment [1] (setting [5]) is “A (a compound having 10 or more and less than 20 is denoted as A)”. At HRAS wild-type protein (setting [6]), the “HRAS /KRAS” value is “B (a compound having 3 or more and less than 10 is denoted as B)”. Further, half-maximal inhibition in experiment [2] (IC50) required 0.0107 µM.
As to `CCO[C@@H]1C[C@H]2C(=O)NC3(CC(F)(F)C3)C(=O)N(C)[C@@H](C(CC)CC)C(=O)N(C)[C@H](CC)CC(=O)N(C)[C@@H](CC3CC3)C(=O)N[C@@H]([C@@H](C)CC)C(=O)N(C)CC(=O)N(C)[C@H]3C/C=C\CCN(C3=O)[C@@H](Cc3ccc(C(F)(F)F)cc3)C(=O)N(C)CC(=O)N[C@@H](CCc3cc(F)c(C(F)(F)F)c(F)c3)C(=O)N2C1` [PP1632], the “NRAS /KRAS” value in experiment [1] (ratio of KD value for GDP-bound NRAS wild-type protein to KD value for KRAS (SPR)) is “A (a compound having 10 or more and less than 20 is denoted as A)”. The “HRAS /KRAS” value at HRAS wild-type protein (ratio of KD value for HRAS wild-type protein to KD value for KRAS (SPR)) is “A (a compound having 10 or more and less than 20 is denoted as A)”. In experiment [2], this compound came in with an IC50 of 0.116 µM.
In the case of `CCCN1C(=O)[C@@H]2CCN2C(=O)CN(C)C(=O)[C@H]([C@@H](C)CC)NC(=O)[C@H](CC(C)C)N(C)C(=O)C[C@@H](C(=O)N2CCOCC2)N(C)C(=O)[C@H](C2CCCC2)N(C)C(=O)[C@](C)(CCC)NC(=O)[C@@H]2CCCN2C(=O)[C@H](CCc2cc(F)c(C(F)(F)F)c(F)c2)NC(=O)CN(C)C(=O)[C@@H]1Cc1ccc(C(F)(F)F)cc1` [PP0794] ([NMeL]I[Sar][Aze][NPrPhe(4-CF3)][Sar][hPhe(3,5-F2-4-CF3)]P[X3][NMeGly(cPent)][NMeD]-Morpholide; lactam N-11), the “NRAS /KRAS” value in experiment [1] (setting [3]) was “C (A compound having a KD ratio of 0.1 or more and less than 3 is denoted as C)”. Further, the “HRAS /KRAS” value on HRAS wild-type protein (setting [4]) was “B (a compound having 3 or more and less than 10 is denoted as B)”. Moreover, the IC50 in experiment [2] stood at 0.122 µM.
Consider `CCCN1C(=O)CN(C)C(=O)CN(C)C(=O)[C@H]([C@@H](C)CC)NC(=O)[C@@H]2CCCCC=CC[C@@](C)(NC(=O)[C@@H]3C[C@@H](OCC)CN3C(=O)[C@H](CCc3cc(F)c(C(F)(F)F)c(F)c3)NC(=O)CN(C)C(=O)[C@@H]1Cc1ccc(C(F)(F)F)cc1)C(=O)N(C)[C@@H](C1CCCC1)C(=O)N(C)[C@H](C(=O)N1CCOCC1)CC(=O)N2C` [PP0902] ([X17]I[Sar][Sar][NPrPhe(4-CF3)][Sar][hPhe(3,5-F2-4-CF3)][Hyp](Et)[dαMeAlg][NMeGly(cPent)][NMeD]-Morpholide; staple 1-9; lactam N-11), for which the “NRAS /KRAS” value in experiment [1] (setting [3]) is “A (a compound having 10 or more and less than 20 is denoted as A)”. The “HRAS /KRAS” value on HRAS wild-type protein (setting [4]) is “B (a compound having 3 or more and less than 10 is denoted as B)”. Further, the IC50 in experiment [2] amounted to 0.0726 µM.
Turning to `CCC(CC)[C@@H]1NC(=O)[C@H](CC(C)C)N(C)C(=O)C[C@@H](C(=O)N2CCOCC2)N(C)C(=O)[C@H](C2CCCC2)N(C)C(=O)C2(CCCC2)NC(=O)[C@@H]2CCCN2C(=O)[C@H](CCc2cc(F)c(C(F)(F)F)c(F)c2)NC(=O)CN(C)C(=O)[C@H](Cc2ccc(C(F)(F)F)cc2)N2CCCCC[C@@H](C2=O)N(C)C(=O)CN(C)C1=O` [PP0523], in experiment [1] (setting [5]), the “NRAS /KRAS” value was “A (a compound having 10 or more and less than 20 is denoted as A)”. The “HRAS /KRAS” value at HRAS wild-type protein (setting [6]) was “B (a compound having 3 or more and less than 10 is denoted as B)”. This compound yielded an IC50 in experiment [2] of 0.734 µM.
Take `CC[C@H](C)[C@@H]1NC(=O)[C@H](CC)N(C)C(=O)C[C@@H](C(=O)N(C)C)N(C)C(=O)[C@H](C2CCCC2)N(C)C(=O)C2(CCC2)NC(=O)[C@@H]2C[C@H](N3CCC(F)(F)CC3)CN2C(=O)[C@H](CCc2cc(F)c(C(F)(F)F)c(F)c2)NC(=O)CN(C)C(=O)[C@H](Cc2ccc(C(F)(F)F)cc2)N2CCCC[C@@H](C2=O)N(C)C(=O)CN(C)C1=O` [PP0732]: the “NRAS /KRAS” value in experiment [1] (setting [5]) is “C (A compound having a KD ratio of 0.1 or more and less than 3 is denoted as C)”. Moreover, the “HRAS /KRAS” value on HRAS wild-type protein (setting [6]) was “B (a compound having 3 or more and less than 10 is denoted as B)”. In addition, the IC50 in experiment [2] was 0.0396 µM.
